ChEMBL document CHEMBL1151886, “Synthesis and SAR of hydroxyethylamine based phenylcarboxyamides as inhibitors of BACE” (Bioorg Med Chem Lett, 2009)

Columns and labels:
Beta-secretase 1 [1] = biological target: T1, Beta-secretase 1 (Homo sapiens, UniProt P56817); experiment: Inhibition of BACE1 in human HEK293 cells overexpressing APP with Swedish mutation assessed as inhibition of amyloid beta 40 production; assay type: cell-based
Beta-secretase 1 [2] = biological target: T1, Beta-secretase 1; experiment: Binding affinity to BACE assessed as displacement of [3H]BMS-599240

T1 sequence (P56817 whole entry): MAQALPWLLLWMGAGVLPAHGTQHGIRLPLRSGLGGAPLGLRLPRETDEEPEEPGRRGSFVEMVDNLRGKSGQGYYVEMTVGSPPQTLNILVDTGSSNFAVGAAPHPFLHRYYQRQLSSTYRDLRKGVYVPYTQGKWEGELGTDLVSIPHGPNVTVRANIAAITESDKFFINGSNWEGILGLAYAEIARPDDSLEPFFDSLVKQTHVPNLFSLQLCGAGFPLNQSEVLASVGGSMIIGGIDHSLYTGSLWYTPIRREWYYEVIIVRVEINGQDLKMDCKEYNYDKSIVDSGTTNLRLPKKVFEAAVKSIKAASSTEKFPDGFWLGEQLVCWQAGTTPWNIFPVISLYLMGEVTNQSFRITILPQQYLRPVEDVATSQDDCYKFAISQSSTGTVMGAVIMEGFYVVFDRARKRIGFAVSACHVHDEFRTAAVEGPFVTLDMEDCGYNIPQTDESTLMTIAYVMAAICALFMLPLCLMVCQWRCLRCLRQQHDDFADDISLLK

Row | SMILES | IC50 (Beta-secretase 1 [1]; read-out: IC50) [µM] | IC50 (Beta-secretase 1 [2]; read-out: IC50) [µM] | IC50 (Beta-secretase 1 [1]; hek293) | IC50 (Beta-secretase 1 [2])
1 | C=CCO/N=C(/C)c1cc(C(=O)N[C@@H](Cc2cc(F)cc(F)c2)[C@H](O)CNCc2cccc(OC)c2)cc(N2CCCCS2(=O)=O)c1 | 1.23 | 0.111 |  | 
2 | CCCO/N=C(/C)c1cc(C(=O)N[C@@H](Cc2cc(F)cc(F)c2)[C@H](O)CNCc2cccc(OC)c2)cc(N2CCCCS2(=O)=O)c1 | 0.205 | 0.025 |  | 
3 | COc1cccc(CNC[C@@H](O)[C@H](Cc2cc(F)cc(F)c2)NC(=O)c2cccc(N(C)S(C)(=O)=O)c2)c1 | 0.08 | 0.075 |  | 
4 | COc1cccc(CNC[C@@H](O)[C@H](Cc2cc(F)cc(F)c2)NC(=O)c2cccc(N3CCCCS3(=O)=O)c2)c1 | 0.182 | 0.074 |  | 
5 | COc1cccc(CNC[C@@H](O)[C@H](Cc2cc(F)cc(F)c2)NC(=O)c2cc(C(C)=O)cc(N3CCCCS3(=O)=O)c2)c1 | 0.248 | 0.09 |  | 
6 | COc1cccc(CNC[C@@H](O)[C@H](Cc2cc(F)cc(F)c2)NC(=O)c2cc(/C(C)=N\OCC(C)C)cc(N(C)S(C)(=O)=O)c2)c1 | > 0.666 | 0.173 |  | 
7 | CCCO/N=C(/C)c1cc(C(=O)N[C@@H](Cc2cc(F)cc(F)c2)[C@H](O)CNCc2cccc(OC)c2)cc(N(c2ccccc2)S(C)(=O)=O)c1 | 0.184 | 0.006 |  | 
8 | CO/N=C(/C)c1cc(C(=O)N[C@@H](Cc2cc(F)cc(F)c2)[C@H](O)CNCc2cccc(OC)c2)cc(C(=O)N[C@H](C)c2ccccc2)c1 | 0.082 | 0.032 |  | 
9 | CO/N=C(\C)c1cc(C(=O)N[C@@H](Cc2cc(F)cc(F)c2)[C@H](O)CNCc2cccc(OC)c2)cc(N(C)S(C)(=O)=O)c1 | 0.052 | 0.06 |  | 
10 | COc1cccc(CNC[C@@H](O)[C@H](Cc2cc(F)cc(F)c2)NC(=O)c2cc(/C(C)=N\OCc3ccccc3)cc(N(c3ccccc3)S(C)(=O)=O)c2)c1 | 0.088 | 0.012 |  | 
11 | CCCN(CCC)C(=O)c1cc(CC(C)O)cc(C(=O)N[C@@H](Cc2cc(F)cc(F)c2)[C@H](O)CNCc2cccc(OC)c2)c1 (stereo partly specified) | 0.034 | 0.016 |  | 
12 | C=CCO/N=C(/C)c1cc(C(=O)N[C@@H](Cc2cc(F)cc(F)c2)[C@H](O)CNCc2cccc(OC)c2)cc(N(C)S(C)(=O)=O)c1 | 0.363 | 0.151 |  | 
13 | COc1cccc(CNC[C@@H](O)[C@H](Cc2cc(F)cc(F)c2)NC(=O)c2cc(/C(C)=N\OCc3ccccc3)cc(N3CCCCS3(=O)=O)c2)c1 | 0.821 | 0.031 |  | 
14 | COc1cccc(CNC[C@@H](O)[C@H](Cc2cc(F)cc(F)c2)NC(=O)c2cccc(C(=O)N[C@H](C)c3ccccc3)c2)c1 | 0.198 | 0.089 |  | 
15 | CCCN(CCC)C(=O)c1cc(C(=O)N[C@@H](Cc2cc(F)cc(F)c2)[C@H](O)CNCc2cccc(OC)c2)cc(C(C)N)c1 (stereo partly specified) | 0.64 | 0.123 |  | 
16 | CCCN(CCC)C(=O)c1cc(CCO)cc(C(=O)N[C@@H](Cc2cc(F)cc(F)c2)[C@H](O)CNCc2cccc(OC)c2)c1 | 0.053 | 0.01 |  | 
17 | COc1cccc(CNC[C@@H](O)[C@H](Cc2cc(F)cc(F)c2)NC(=O)c2cc(C(C)O)cc(N(c3ccccc3)S(C)(=O)=O)c2)c1 (stereo partly specified) |  |  | Not Active | Not Active
18 | COc1cccc(CNC[C@@H](O)[C@H](Cc2cc(F)cc(F)c2)NC(=O)c2cc(C(C)=O)cc(N(c3ccccc3)S(C)(=O)=O)c2)c1 | > 0.263 | 0.017 |  | 
19 | C=CCO/N=C(/C)c1cc(C(=O)N[C@@H](Cc2cc(F)cc(F)c2)[C@H](O)CNCc2cccc(OC)c2)cc(C(=O)N(CCC)CCC)c1 | 0.12 | 0.01 |  | 
20 | C=CCO/N=C(/C)c1cc(C(=O)N[C@@H](Cc2cc(F)cc(F)c2)[C@H](O)CNCc2cccc(OC)c2)cc(C(=O)N[C@H](C)c2ccccc2)c1 | 0.5 | 0.086 |  | 
21 | COc1cccc(CNC[C@@H](O)[C@H](Cc2cc(F)cc(F)c2)NC(=O)c2cc(C(C)=O)cc(N(C)S(C)(=O)=O)c2)c1 | 0.559 | 0.124 |  | 
22 | CO/N=C(\C)c1cc(C(=O)N[C@@H](Cc2cc(F)cc(F)c2)[C@H](O)CNCc2cccc(OC)c2)cc(N(c2ccccc2)S(C)(=O)=O)c1 | 0.086 | 0.01 |  | 
23 | CCCN(CCC)C(=O)c1cc(C(=O)N[C@@H](Cc2cc(F)cc(F)c2)[C@H](O)CNCc2cccc(OC)c2)cc(C(C)O)c1 (stereo partly specified) | 0.012 | 0.002 |  | 
24 | CCCN(CCC)C(=O)c1cc(C(=O)N[C@@H](Cc2cc(F)cc(F)c2)[C@H](O)CNCc2cccc(OC)c2)cc(/C(C)=N\O)c1 | 0.027 | 0.003 |  | 

Row | SMILES | IC50 (Beta-secretase 1 [1]; read-out: IC50) [µM] | IC50 (Beta-secretase 1 [2]; read-out: IC50) [µM] | IC50 (Beta-secretase 1 [1]; hek293) | IC50 (Beta-secretase 1 [2])
25 | CCCN(CCC)C(=O)c1cc(C(=O)N[C@@H](Cc2cc(F)cc(F)c2)[C@H](O)CNCc2cccc(OC)c2)cc(/C(C)=N\OCc2ccccc2)c1 | 0.534 | 0.067 |  | 
26 | COc1cccc(CNC[C@@H](O)[C@H](Cc2cc(F)cc(F)c2)NC(=O)c2cc(/C(C)=N/OCC(C)C)cc(N(c3ccccc3)S(C)(=O)=O)c2)c1 |  | 0.242 | Not Active | 
27 | COc1cccc(CNC[C@@H](O)[C@H](Cc2cc(F)cc(F)c2)NC(=O)c2cc(C(C)O)cc(N3CCCCS3(=O)=O)c2)c1 (stereo partly specified) | 0.305 | 0.043 |  | 
28 | CCCN(CCC)C(=O)c1cc(Oc2ccccc2)cc(C(=O)N[C@@H](Cc2cc(F)cc(F)c2)[C@H](O)CNCc2cccc(OC)c2)c1 | > 0.333 | 0.01 |  | 
29 | CCCN(CCC)C(=O)c1cc(Sc2ccccc2)cc(C(=O)N[C@@H](Cc2cc(F)cc(F)c2)[C@H](O)CNCc2cccc(OC)c2)c1 | > 0.333 | 0.013 |  | 
30 | CCCN(CCC)C(=O)c1cc(C(=O)N[C@@H](Cc2cc(F)cc(F)c2)[C@H](O)CNCc2cccc(OC)c2)cc(C(C)NC(C)=O)c1 (stereo partly specified) | 0.045 | 0.02 |  | 
31 | CCCN(CCC)C(=O)c1cc(Oc2ccc(OC)cc2)cc(C(=O)N[C@@H](Cc2cc(F)cc(F)c2)[C@H](O)CNCc2cccc(OC)c2)c1 | 0.412 | 0.01 |  | 
32 | COc1cccc(CNC[C@@H](O)[C@H](Cc2cc(F)cc(F)c2)NC(=O)c2cccc(C(=O)NC(C)c3ccc(F)cc3)c2)c1 (stereo partly specified) | 0.266 | 0.166 |  | 
33 | COc1cccc(CNC[C@@H](O)[C@H](Cc2cc(F)cc(F)c2)NC(=O)c2cc(C(=O)NC(C)c3ccc(F)cc3)cc(C(C)O)c2)c1 (stereo partly specified) | 0.164 | 0.037 |  | 
34 | CCCN(CCC)C(=O)c1cc(Sc2ccc(OC)cc2)cc(C(=O)N[C@@H](Cc2cc(F)cc(F)c2)[C@H](O)CNCc2cccc(OC)c2)c1 | 0.03 | 0.027 |  | 
35 | CCCN(CCC)C(=O)c1cc(CC(COC)OC)cc(C(=O)N[C@@H](Cc2cc(F)cc(F)c2)[C@H](O)CNCc2cccc(OC)c2)c1 (stereo partly specified) |  | > 2 | Not Active | 
36 | COc1cccc(CNC[C@@H](O)[C@H](Cc2cc(F)cc(F)c2)NC(=O)c2cc(C(C)O)cc(N(C)S(C)(=O)=O)c2)c1 (stereo partly specified) | 0.122 | 0.043 |  | 
37 | COc1cccc(CNC[C@@H](O)[C@H](Cc2cc(F)cc(F)c2)NC(=O)c2cccc(N(c3ccccc3)S(C)(=O)=O)c2)c1 | 0.137 | 0.011 |  | 
38 | C=CCO/N=C(/C)c1cc(C(=O)N[C@@H](Cc2cc(F)cc(F)c2)[C@H](O)CNCc2cccc(OC)c2)cc(N(c2ccccc2)S(C)(=O)=O)c1 | 0.162 | 0.027 |  | 
39 | CCCN(CCC)C(=O)c1cc(C(=O)N[C@@H](Cc2cc(F)cc(F)c2)[C@H](O)CNCc2cccc(OC)c2)cc(S(=O)(=O)c2ccccc2)c1 | 0.148 | 0.011 |  | 
40 | CCCN(CCC)C(=O)c1cc(Oc2ccccc2OC)cc(C(=O)N[C@@H](Cc2cc(F)cc(F)c2)[C@H](O)CNCc2cccc(OC)c2)c1 | > 0.666 | 0.054 |  | 
41 | CO/N=C(/C)c1cc(C(=O)NC(C)c2ccc(F)cc2)cc(C(=O)N[C@@H](Cc2cc(F)cc(F)c2)[C@H](O)CNCc2cccc(OC)c2)c1 (stereo partly specified) | 0.276 | 0.024 |  | 
42 | COc1cccc(CNC[C@@H](O)[C@H](Cc2cc(F)cc(F)c2)NC(=O)c2cc(C(=O)N[C@H](C)c3ccccc3)cc(C(C)O)c2)c1 (stereo partly specified) | 0.092 | 0.029 |  | 
43 | CCCN(CCC)C(=O)c1cc(C(=O)N[C@@H](Cc2cc(F)cc(F)c2)[C@H](O)CNCc2cccc(OC)c2)cc(/C(C)=N\OC)c1 | 0.042 | 0.001 |  | 
44 | COc1cccc(CNC[C@@H](O)[C@H](Cc2cc(F)cc(F)c2)NC(=O)c2cc(C(C)=O)cc(C(=O)NC(C)c3ccc(F)cc3)c2)c1 (stereo partly specified) | 0.091 | 0.051 |  | 
45 | CCCN(CCC)C(=O)c1cccc(C(=O)N[C@@H](Cc2cc(F)cc(F)c2)[C@H](O)CNCc2cccc(OC)c2)c1 | 0.08 | 0.031 |  | 
46 | COc1cccc(CNC[C@@H](O)[C@H](Cc2cc(F)cc(F)c2)NC(=O)c2cc(/C(C)=N\O)cc(N(C)S(C)(=O)=O)c2)c1 | 0.429 | 0.076 |  | 
47 | COc1cccc(CNC[C@@H](O)[C@H](Cc2cc(F)cc(F)c2)NC(=O)c2cc(/C(C)=N\OCC(C)C)cc(N3CCCCS3(=O)=O)c2)c1 | 2.1 | 0.428 |  | 
48 | COc1cccc(CNC[C@@H](O)[C@H](Cc2cc(F)cc(F)c2)NC(=O)c2cc(/C(C)=N\OCc3ccccc3)cc(N(C)S(C)(=O)=O)c2)c1 | > 0.333 | 0.009 |  | 
